This assay concerns the target Cathepsin D (Homo sapiens, UniProt P07339). Nature of the assay: Enzyme Inhibition Measurements. The following applies: 25 °C.

As usually defined, the IC50 is the point on the concentration scale where inhibition reaches its midpoint. Lower therefore signals higher potency.

Cathepsin D, sequence (P07339 65-162 limits assumed): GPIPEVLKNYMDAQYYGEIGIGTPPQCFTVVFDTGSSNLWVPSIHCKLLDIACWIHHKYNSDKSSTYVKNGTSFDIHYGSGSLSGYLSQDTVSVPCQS
Cathepsin D, sequence (P07339 169-412 limits assumed): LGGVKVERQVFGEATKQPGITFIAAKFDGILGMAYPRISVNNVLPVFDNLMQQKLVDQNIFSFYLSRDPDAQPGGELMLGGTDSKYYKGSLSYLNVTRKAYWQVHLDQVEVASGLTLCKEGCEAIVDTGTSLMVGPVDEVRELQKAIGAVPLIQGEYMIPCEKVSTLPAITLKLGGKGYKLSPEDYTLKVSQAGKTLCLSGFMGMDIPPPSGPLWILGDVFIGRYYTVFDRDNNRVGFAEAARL

The compound `CCCCNC(=O)[C@@H](NC(=O)[C@@H]1OCC[C@H]1[C@H](O)[C@H](CC(C)C)NC(=O)[C@H](CCSC)NC(=O)[C@H](CC(C)C)NC(C)=O)C(C)C` [(2S)-N-[(1S)-1-{[(1S,2S)-1-[(2R,3S)-2-{[(1S)-1-(butylcarbamoyl)-2-methylpropyl]carbamoyl}oxolan-3-yl]-1-hydroxy-4-methylpentan-2-yl]carbamoyl}-3-(methylsulfanyl)propyl]-2-acetamido-4-methylpentanamide] gave an IC50 of 280 nM. This lies in the sub-micromolar range.

The record behind these values is BindingDB's records for doi:10.1021/jm050142+ (Universite De Montreal At Succursale Centre-Ville, 2005).
